SMILES strings stand for the structures. pIC50, pKi: −log10 of the molar value.

For one experiment, the target named is T1, ORL-1 receptor (Rattus norvegicus, UniProt P35370).
T1 construct: a standard product of the receptor prepared from cerebral cortex of rat; from tissue; host or cells: rat cerebral cortex
As to the kind of experiment: ORL-1 receptor binding test ([3H]-nociceptin). As to conditions: receptor prepared from cerebral cortex of rat.

Another experiment addresses human ORL-1 receptor (Homo sapiens, UniProt P41146). As to the kind of experiment: Agonist action: inhibition of forskolin-stimulated cAMP elevation in HEK293 cells. The format is cell-based. As to conditions: HEK293 cells expressing human ORL-1 receptor, forskolin 1 μmol/L.
The test system of another experiment is rats. The experiment is described as follows: Antagonistic action of the ORL-1 receptor antagonist on the phase advancement by the ORL-1 receptor agonist. As to conditions: constant dark, oral. It counts as in vivo, rat.

T1 sequence (P35370 whole entry): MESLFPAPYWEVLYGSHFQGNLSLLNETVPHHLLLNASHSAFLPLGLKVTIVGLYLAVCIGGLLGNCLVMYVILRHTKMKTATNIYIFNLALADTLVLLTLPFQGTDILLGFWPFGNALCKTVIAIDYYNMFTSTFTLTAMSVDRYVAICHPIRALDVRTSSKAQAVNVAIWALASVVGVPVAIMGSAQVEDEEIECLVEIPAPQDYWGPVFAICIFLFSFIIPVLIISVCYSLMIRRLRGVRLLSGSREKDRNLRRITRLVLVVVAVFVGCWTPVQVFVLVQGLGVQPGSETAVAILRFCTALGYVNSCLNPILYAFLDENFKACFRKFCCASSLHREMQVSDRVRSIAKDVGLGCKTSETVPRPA
Chain of human ORL-1 receptor (P41146 whole entry): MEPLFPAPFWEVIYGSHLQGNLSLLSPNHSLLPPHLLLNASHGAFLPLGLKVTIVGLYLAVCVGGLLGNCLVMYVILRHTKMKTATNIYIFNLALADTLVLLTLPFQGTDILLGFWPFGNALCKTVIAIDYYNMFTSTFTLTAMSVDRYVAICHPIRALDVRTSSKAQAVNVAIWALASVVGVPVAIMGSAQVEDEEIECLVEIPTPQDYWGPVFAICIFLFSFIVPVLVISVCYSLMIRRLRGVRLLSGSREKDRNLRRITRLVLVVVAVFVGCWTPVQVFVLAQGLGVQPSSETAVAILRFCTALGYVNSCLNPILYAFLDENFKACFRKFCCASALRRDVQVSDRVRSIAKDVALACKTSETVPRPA

Broadly, the pIC50 is the negative decadic logarithm of the IC50, by convention in mol/L. As usually defined, the pKi is the Ki on a negative log10 scale, so that one unit is a factor of ten. With `CCc1ccc(OCc2ccccc2C(=O)Nc2ccc3nc(C)cc(N)c3c2)cc1.Cl` [compound D, N-(4-amino-2-methylquinolin-6-yl)-2-(4-ethylphenoxymethyl)benzamide hydrochloride], the pIC50 at ORL-1 receptor (25° C., 20 minutes, read-out: IC50 value, inhibition of the binding of [3H]-nociceptin) was 6.30. Moreover, the pKi at ORL-1 receptor (Ki=IC50/(1+L/Kd), read-out: Ki value, inhibition of the binding of [3H]-nociceptin) was 7.22. In addition, the “inhibition of cAMP production (ORL-1 receptor agonistic activity)” value on human ORL-1 receptor is “did not inhibit cAMP production”. In addition, the “phase shift for the ORL-1 receptor antagonist alone” value with rats is on record as “no phase shift was observed”.
